# Measured values from US20140080762A1, “HYD1 PEPTIDES FOR RELAPSED CANCER” (H. LEE MOFFITT CANCER CENTER AND RESEARCH INSTITUTE, INC., priority 2011, published 2014).
# “Also recorded” adds a separate entry of the source.
# Assays:
# U226 cells = test: Combination cytotoxicity assay with HYD1 in U226 cells; assay type: cell-based; conditions: in vitro
# Excerpt: FIG. 8. Table of combination index (CI) summary for combinations of HYD1 and SAHA, etoposide, arsenic, Vel, or doxorubicin in U226 cells.
# H929-60 cells [1] = test: Confocal microscopy of FAM-HYD1 binding, H929-60 cells; assay type: cell-based, human; conditions: 12.5 μg/ml FAM-HYD1, confocal microscopy
# Protocol: (§1) FIGS. 18A, 18B-1, 18B-2, and 18B-3. […] FIG. 18A: H929 and H929-60 cells (4×10^5 cells/ml) were incubated with FAM-HYD1 (6.25, 12.5 μg/ml) on ice for 15 minutes. FACS analysis was used to determine the geometric mean of fluorescence of FAM-HYD1 bound to H929 and H929-60 cells. A representative of three independent experiments is shown. A student's t-test was performed to determine significance (* denotes p<0.05). FIGS. 18B-1, 18B-2, and 18B-3: When the dose of FAM-HYD1 was increased to 12.5 μg/ml FAM-HYD1 binding to plasma membrane was detected in the resistant cell line as determine by confocal microscopy.
# (§2) To assess whether (a) HYD1 bound the cell surface and (b) whether binding of HYD1 was reduced in the resistant cell line FAM-HYD1 was used to image peptide binding in the parental and resistant cell line by confocal microscopy. A 35 mm glass bottom microwell dishes (Mattek cultureware, Ashland, Mass.) were plated with 10 uL Cell-tak (BD biosciences) per manufacture's instructions. Media containing 1 uM Alexa Fluor 594 wheat germ agglutinin (WGA) (Invitrogen) and 20 uM Hoechst 33342 (Invitrogen) was placed back in the plates and the samples were incubated for 30 minutes. After 30 minutes, the cells were washed and treated with media containing 6.25 μg/ml FAM conjugated HYD1 for 10 minutes. […]
# H929-60 cells [2] = test: FAM-HYD1 binding to cells by FACS, H929-60 cells; assay type: cell-based, human
# Protocol: as §1
# H929 cells = test: Confocal microscopy of FAM-HYD1 binding, H929 cells; assay type: cell-based, human; conditions: 6.25 μg/ml FAM-HYD1, 10 minutes
# Protocol: FIGS. 11A-11E. […] FIG. 11B: Loss of mitochondrial membrane […] was determined using DiOC6 staining following 2 hours of HYD1 treatment in H929 and H929-60 (* denotes p<0.05 n=9, Student's t-test). FIG. 11C: ATP levels were determined in the H929 and H929-60 cell lines following 6 hours of HYD1 (50 ug/ml) treatment. (* denotes p<0.05 and # denotes p>0.05, n=9, Student's t-test). FIGS. 11D and 11E: H929 cell (FIG. 11D) and H929-60 cells (FIG. 11E) were stained with Alexa Fluor 594 wheat germ agglutinin (WGA) and Hoechst 33342 for 30 minutes. 6.25 μg/ml FAM-HYD1 was added 10 minutes before images were taken. The experiment was repeated 3 independent times and shown is a representative experiment.
# as §2
# CD44 = test: Biotin-HYD1 pull-down assay (Mass-Spec, Western blot), CD44 in H929 membrane extract; assay type: binding, human; conditions: NeutrAvidin beads
# Protocol: The first lane is 30 μg of membrane extract only. CD44 was detected by western blot analysis using a pan-CD44 antibody.
# Samples were spun at 15000 XG for minutes at 4 degrees and the supernatant was removed and membranes were pelleted at 100,000Xg for 15 minutes. Membrane pellets were solubilized in AP buffer containing 0.2% NP40 and protein was quantified using BCA reagents (Pierce, Rockford, Ill.). […] After one hour, the beads were washed twice in AP buffer and 50 ug of membrane extracts were added to a total volume of 500 μl and incubated with beads overnight at 4 degrees. The beads were washed five times in AP buffer containing 0.2% NP40 and samples were suspended in SDS-PAGE sample buffer and bound proteins were resolved by SDSPAGE.
# NeutrAvidin beads were used to reduce non-specific binding. […] The binding experiment was repeated using 300 ug of membrane extract. […] The inventors next determined whether α4 integrin could be detected by western blot analysis. […] To determine whether CD44 was indeed a direct binding partner of CD44 the inventors used recombinant CD44 and an ELISA as a readout of binding. The recombinant CD44 protein (purchased from Abnova) corresponds to Isoform 4 on Swiss Prot. The amino acid sequence is missing 224-266 and 223 is substituted S for T relative to the longest CD44 variant referred to as epican.
# recombinant CD44 = molecular target: T1, recombinant CD44 (Homo sapiens, UniProt P16070); test: Direct ELISA, recombinant CD44 binding to immobilized biotin-HYD1; conditions: NeutrAvidin coated 96-well plates
# T1 construct: purchased Abnova
# T1 sequence (P16070 21-699 isoform P16070-4): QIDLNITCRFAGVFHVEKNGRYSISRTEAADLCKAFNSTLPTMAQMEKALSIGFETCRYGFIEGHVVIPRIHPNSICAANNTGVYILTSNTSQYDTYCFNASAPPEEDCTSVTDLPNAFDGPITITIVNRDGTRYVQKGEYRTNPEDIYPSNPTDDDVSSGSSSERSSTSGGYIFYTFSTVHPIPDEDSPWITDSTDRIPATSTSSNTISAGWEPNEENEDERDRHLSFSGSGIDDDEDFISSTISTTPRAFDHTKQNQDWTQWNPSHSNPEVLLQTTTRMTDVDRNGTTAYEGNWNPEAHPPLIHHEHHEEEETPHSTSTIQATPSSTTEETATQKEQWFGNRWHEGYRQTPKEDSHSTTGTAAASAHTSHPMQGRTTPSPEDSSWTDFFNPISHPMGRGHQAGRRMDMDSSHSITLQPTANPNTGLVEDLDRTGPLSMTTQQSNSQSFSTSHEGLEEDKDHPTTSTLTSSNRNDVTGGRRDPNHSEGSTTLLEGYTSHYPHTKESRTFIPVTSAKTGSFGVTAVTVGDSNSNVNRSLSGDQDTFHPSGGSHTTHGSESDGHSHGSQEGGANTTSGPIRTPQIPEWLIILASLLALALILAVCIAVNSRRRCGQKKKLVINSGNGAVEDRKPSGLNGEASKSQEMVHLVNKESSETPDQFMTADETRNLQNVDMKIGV
# Protocol: The pull down assay was directly coupled with an unbiased Mass-Spec analysis to identify HYD1 binding partners. […] NeutrAvidin beads were used to reduce non-specific binding. […] The binding experiment was repeated using 300 ug of membrane extract. […] The inventors next determined whether α4 integrin could be detected by western blot analysis. […] To determine whether CD44 was indeed a direct binding partner of CD44 the inventors used recombinant CD44 and an ELISA as a readout of binding. The recombinant CD44 protein (purchased from Abnova) corresponds to Isoform 4 on Swiss Prot. The amino acid sequence is missing 224-266 and 223 is substituted S for T relative to the longest CD44 variant referred to as epican.
# H929-60 cells [3] = test: Cross-resistance of H929-60 cells to standard myeloma agents (annexin V FITC/PI, IC50); assay type: cell-based, human; conditions: 24 hours; p>0.05
# Protocol: FIG. 19. H929-60 cells are not resistant to standard myeloma therapies. H929 and H929-60 cells were treated with increasing concentrations of melphalan or Velcade for 24 hours. After 24 hours, cells were stained with annexin V FITC/P1 for 45 minutes and acquired on FACScan. IC50 values were determined by linear regressions. […] Shown in the table of FIG. 19 is the mean and standard deviations of three independent experiments.
# H929-60 cells [4] = test: HS-5 stroma co-culture model of drug resistance, H929-60 cells; assay type: cell-based, human
# Protocol: FIGS. 15A-15C. […] FIG. 15A: H929 and H929-60 pre-incubated with CMFDA dye were adhered to 10,000 HS-5 cells for 2 hours. After 2 hours unadherent cells were removed and the fluorescence intensity was measured on a fluorescent plate reader. FIGS. 15B and 15C: H929 and H929-60 cells were adhered to HS-5 GFP cells for 24 hours. After 24 hours samples were treated with 15 μM melphalan or 16 nM velcade for 24 hours. Cell death was analyzed using a FACScalibur with the GFP expressing HS-5 cells being excluded from the analysis. In FIGS. 15A-15C, a representative of three independent experiments was shown. (*=p<0.05, n=9 or#=p>0.05, n=9 Students t-test).
# The inventors reasoned that acquisition of resistance towards HYD1, which correlated with reduced functional binding to fibronectin, VCAM-1, and HS-5 stromal cells, would likely result in a compromised CAMDR phenotype. To test this premise, the inventors utilized the HS-5 co-culture model of drug resistance. H929 and the HYD1 resistant variant H929-60 cells were treated with either melphalan or velcade in the presence or absence of HS-5/GFP bone marrow stromal cells. As shown in FIGS. 15B and 15C, the HYD1 resistant cell line was not resistant in the co-culture bone marrow stroma model to melphalan or velcade, respectively.
# MM cells = test: Characterisation of HYD1-induced cell death in MM cells (apoptosis markers, autophagy, NAC protection); assay type: cell-based
# [5] = test system: epithelial prostate carcinoma cells; conditions: cited from earlier work
# [6] = molecular target: human CD44 ectodomain (human) (UniProt P16070); test: SPR; experiment 12/05
# Chain of human CD44 ectodomain (human) (P16070 21-649): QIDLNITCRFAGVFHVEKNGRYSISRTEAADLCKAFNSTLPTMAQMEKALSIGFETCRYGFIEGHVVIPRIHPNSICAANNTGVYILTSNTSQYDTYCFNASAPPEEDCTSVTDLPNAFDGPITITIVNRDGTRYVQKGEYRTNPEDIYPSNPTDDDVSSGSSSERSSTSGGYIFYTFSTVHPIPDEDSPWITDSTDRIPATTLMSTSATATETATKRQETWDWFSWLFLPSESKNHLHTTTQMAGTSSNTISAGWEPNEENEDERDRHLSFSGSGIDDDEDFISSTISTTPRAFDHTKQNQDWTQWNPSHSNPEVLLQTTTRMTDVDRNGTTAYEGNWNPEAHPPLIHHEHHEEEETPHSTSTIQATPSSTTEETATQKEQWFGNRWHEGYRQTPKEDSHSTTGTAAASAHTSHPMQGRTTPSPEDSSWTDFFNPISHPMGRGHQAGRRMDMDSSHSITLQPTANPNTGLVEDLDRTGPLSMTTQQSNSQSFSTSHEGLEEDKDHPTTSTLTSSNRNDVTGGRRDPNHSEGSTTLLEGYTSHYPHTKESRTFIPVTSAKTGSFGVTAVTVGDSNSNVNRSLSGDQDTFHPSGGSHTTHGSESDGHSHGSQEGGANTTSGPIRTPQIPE
# [7] = molecular target: human CD44 ectodomain (human) (UniProt P16070); test: SPR; experiment 11/29
# [8] = molecular target: human CD44 ectodomain (human) (UniProt P16070); test: SPR; experiment 12/09
# [9] = molecular target: human CD44 ectodomain (human) (UniProt P16070); test: SPR; experiment 12/05 LF
# H929 engrafted tumor = test: SCID-hu in vivo model, H929 engrafted tumor; conditions: 8 mg/kg i.p. daily for 21 days
# Protocol: The SCID-hu model consists of implanting human fetal bone into the mammary mouse fat pad of SCID mice. The myeloma cells are subsequently injected directly into the bone and myeloma cells will engraft only in the area of the human bone. Human paraprotein can be measured in the mouse sera and levels represent a good marker for evaluating tumor burden and response to chemotherapy. Circulating kappa levels were measured on day 28 (baseline reading before peptide treatment), 35, 42 and 49 by ELISA, and tumor burden was determined by calculating the kappa levels on day X divided by the baseline kappa levels recorded on day 28 for each mouse. Shown in FIG. 2A is the antitumor response of H929 engrafted tumor when mice were given 8 mg/kg intraperitoneal (i.p.) injections daily for 21 days starting on day 28. […] Mice were humanely euthanized at […] as several control mice had tumor protruding from the bone implant. […] The inventors anticipate that because HYD1 induces cell death independent of apoptosis and blocks cell adhesion mediated drug resistance to standard therapy that the most dramatic in vivo activity will be realized when combined with standard therapy.
# [10] = test system: CD34+ hematopoietic progenitor cells; test: Colony forming assay, normal CD34+ hematopoietic progenitor cells; assay type: cell-based; conditions: HYD1 12.5 and 50 μg/ml for 2 hrs; colonies counted day 12
# Protocol: (§3) CD34^+ hematopoietic progenitor cells were isolated from peripheral blood and treated for 2 hrs with HYD1 (12.5 and 50 μg/ml) and then plated in a methylcellulose media supplemented with growth factors supporting myeloid and erythroid colonies. Colonies were counted on day 12 post-plating. […] In addition, the inventors evaluated the toxicity of HYD1 in normal peripheral blood mononuclear cells (PBMC).
# [11] = test system: peripheral blood mononuclear cells (PBMC); test: Cell death in normal peripheral blood mononuclear cells; assay type: cell-based; conditions: six hours treatment, up to doses of 50 μg/ml
# Protocol: as §3
compound,measurement,setting,value
COc1cccc2c1C(=O)c1c(O)c3c(c(O)c1C2=O)C[C@@](O)(C(=O)CO)C[C@@H]3O[C@H]1C[C@H](N)[C@H](O)[C@H](C)O1 [Doxorubicin],synergy in combination with HYD1 (combination index),U226 cells,greatest levels of synergy; also recorded: most synergistic
FAM-kikmviswkg [FAM-HYD1],"FAM-HYD1 binding to plasma membrane, H929-60",H929-60 cells [1],detected
same,reduction in FAM-HYD1 binding relative to the parental cell line,"H929-60 cells [2]; 6.25 ug/ml FAM-HYD1, FACS",2.7 fold
same,"FAM-HYD1 binding to the cell surface, H929-60 compared to H929","H929-60 cells [2]; 6.25, 12.5 μg/ml, on ice 15 minutes",reduced binding; also recorded: decreased FAM-HYD1 binding
same,"localization of FAM-HYD1, H929",H929 cells,localizes to the plasma membrane
O=C(O)CCCC[C@@H]1SC[C@@H]2NC(=O)N[C@@H]21 [biotin],interaction with CD44 (pull-down),CD44,not
same,binding of recombinant CD44 (ELISA),recombinant CD44,relatively no binding
N[C@@H](Cc1ccc(N(CCCl)CCCl)cc1)C(=O)O [melphalan],"IC50 values, H929-60 compared to parental H929 (cross-resistance)",H929-60 cells [3],not resistant; also recorded: not deemed to be significant
same,"melphalan induced cell death in HS-5 co-culture, H929-60",H929-60 cells [4]; 15 μM melphalan for 24 hours,not resistant
CC(=O)N[C@@H](CS)C(=O)O [N-acetyl-L-cysteine],protection of MM cells from HYD1-induced death,MM cells,partially protects
"WIKSMKIVKG (HYD1 variant) [HYD1S, a scrambled derivative of HYD1]","inhibition of cell adhesion to extracellular matrixes (laminin 5, laminin 332, collagen, fibronectin)",[5],not to inhibit cell adhesion
O=C1c2c(O)ccc(O)c2C(=O)c2c(NCCNCCO)ccc(NCCNCCO)c21 [mitoxantrone],"IC50 values, H929-60 compared to parental H929 (cross-resistance)",H929-60 cells [3],not resistant
CC(C)C[C@H](NC(=O)[C@H](Cc1ccccc1)NC(=O)c1cnccn1)B(O)O [Velcade],"IC50 values, H929-60 compared to parental H929 (cross-resistance)",H929-60 cells [3],not resistant; also recorded: not deemed to be significant
same,"velcade induced cell death in HS-5 co-culture, H929-60",H929-60 cells [4]; 16 nM velcade for 24 hours,not resistant
HYD1,Kd,[6],0.0226 µM
same,Kd,[7],0.0402 µM
same,Kd,[8],0.0409 µM
same,Kd,[9],0.0267 µM
CC[C@@H](C)[C@@H](NC(=O)[C@H](N)CCCCN)C(=O)N[C@H](CCCCN)C(=O)N[C@H](CCSC)C(=O)N[C@@H](C(=O)N[C@@H](C(=O)N[C@H](CO)C(=O)N[C@H](Cc1c[nH]c2ccccc12)C(=O)N[C@H](CCCCN)C(=O)NCC(=O)O)[C@H](C)CC)C(C)C [HYD1],overt toxicity or weight loss,H929 engrafted tumor,no overt toxicity or weight loss
same,colony formation of normal CD34+ cells,[10],did not inhibit colony formation; also recorded: did not inhibit differentiation or colony formation
same,cell death in PBMC,[11],did not induce cell death; also recorded: not sensitive
